Laboratory results from PubChem BioAssay (NCI).
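Compound exposure: 48 hours, 5 concentrations, 96-well plates. Abbreviation: GI50, concentration required for 50% inhibition of growth. TGI: concentration producing complete growth inhibition.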

Key:
Assay in all cases: NCI anticancer screen, dose series, 48 h
HCC-2998 colon = test system: HCC-2998 colon
CAKI-1 renal = test system: CAKI-1 renal
HCT-15 colon = test system: HCT-15 colon
OVCAR-3 ovarian = test system: OVCAR-3 ovarian
UACC-62 melanoma = test system: UACC-62 melanoma
HOP-62 NSCLC = test system: HOP-62 NSCLC
U251 CNS = test system: U251 CNS
RXF 393 renal = test system: RXF 393 renal
EKVX NSCLC = test system: EKVX NSCLC
MDA-MB-435 = test system: MDA-MB-435
ACHN renal = test system: ACHN renal
SN12C renal = test system: SN12C renal
SK-MEL-5 melanoma = test system: SK-MEL-5 melanoma
HCT-116 colon = test system: HCT-116 colon
UACC-257 melanoma = test system: UACC-257 melanoma
MDA-MB-231 breast = test system: MDA-MB-231 breast
SF-295 CNS = test system: SF-295 CNS
SF-539 CNS = test system: SF-539 CNS
NCI/ADR-RES ovarian = test system: NCI/ADR-RES ovarian
NCI-H460 lung = test system: NCI-H460 lung
NCI-H226 lung = test system: NCI-H226 lung
SW-620 colon = test system: SW-620 colon
LOX IMVI melanoma = test system: LOX IMVI melanoma
A549 NSCLC = test system: A549 NSCLC
KM12 colon = test system: KM12 colon
SNB-19 CNS = test system: SNB-19 CNS
MALME-3M melanoma = test system: MALME-3M melanoma
SNB-75 CNS = test system: SNB-75 CNS
SK-MEL-2 melanoma = test system: SK-MEL-2 melanoma
HS 578T breast = test system: HS 578T breast
786-0 renal = test system: 786-0 renal
NCI-H23 lung = test system: NCI-H23 lung
SK-OV-3 ovarian = test system: SK-OV-3 ovarian
M14 melanoma = test system: M14 melanoma
PC-3 prostate = test system: PC-3 prostate
A498 renal = test system: A498 renal
OVCAR-5 ovarian = test system: OVCAR-5 ovarian
BT-549 breast = test system: BT-549 breast
TK-10 renal = test system: TK-10 renal
COLO 205 colon = test system: COLO 205 colon
IGROV1 ovarian = test system: IGROV1 ovarian
UO-31 renal = test system: UO-31 renal
OVCAR-4 ovarian = test system: OVCAR-4 ovarian
SK-MEL-28 melanoma = test system: SK-MEL-28 melanoma
HOP-92 NSCLC = test system: HOP-92 NSCLC
T-47D breast = test system: T-47D breast
DU-145 prostate = test system: DU-145 prostate
OVCAR-8 ovarian = test system: OVCAR-8 ovarian
HL-60(TB) leukemia = test system: HL-60(TB) leukemia
RPMI-8226 leukemia = test system: RPMI-8226 leukemia
NCI-H522 lung = test system: NCI-H522 lung
HT29 colon = test system: HT29 colon
MCF7 breast = test system: MCF7 breast
SF-268 CNS = test system: SF-268 CNS

COc1ccc(-c2nc(/C=N/Nc3cc(C)nc4ccc(Cl)cc34)c(C)o2)cc1
GI50 (HCC-2998 colon): 1.85 µM | TGI (HCC-2998 colon): 3.39 µM | GI50 (CAKI-1 renal): 1.63 µM | TGI (CAKI-1 renal): 2.98 µM | GI50 (HCT-15 colon): 1.52 µM | TGI (HCT-15 colon): 3.06 µM | GI50 (OVCAR-3 ovarian): 1.81 µM | TGI (OVCAR-3 ovarian): 3.27 µM | GI50 (UACC-62 melanoma): 1.8 µM | TGI (UACC-62 melanoma): 3.37 µM | GI50 (HOP-62 NSCLC): 1.64 µM | TGI (HOP-62 NSCLC): 3.12 µM | GI50 (U251 CNS): 1.78 µM | TGI (U251 CNS): 3.28 µM | GI50 (RXF 393 renal): 1.64 µM | TGI (RXF 393 renal): 3.14 µM | GI50 (EKVX NSCLC): 1.82 µM | TGI (EKVX NSCLC): 3.29 µM | GI50 (MDA-MB-435): 1.65 µM | TGI (MDA-MB-435): 3.07 µM | GI50 (ACHN renal): 1.81 µM | TGI (ACHN renal): 3.2 µM | GI50 (SN12C renal): 1.8 µM | TGI (SN12C renal): 3.42 µM | GI50 (SK-MEL-5 melanoma): 1.77 µM | TGI (SK-MEL-5 melanoma): 3.17 µM | GI50 (HCT-116 colon): 1.82 µM | TGI (HCT-116 colon): 3.27 µM | GI50 (UACC-257 melanoma): 1.7 µM | TGI (UACC-257 melanoma): 3.35 µM | GI50 (MDA-MB-231 breast): 2.03 µM | TGI (MDA-MB-231 breast): 3.84 µM | GI50 (SF-295 CNS): 1.82 µM | TGI (SF-295 CNS): 3.31 µM | GI50 (SF-539 CNS): 1.97 µM | TGI (SF-539 CNS): 3.45 µM | GI50 (NCI/ADR-RES ovarian): 1.97 µM | TGI (NCI/ADR-RES ovarian): 3.95 µM | GI50 (NCI-H460 lung): 1.85 µM | TGI (NCI-H460 lung): 3.49 µM | GI50 (NCI-H226 lung): 2.35 µM | TGI (NCI-H226 lung): 5.14 µM | GI50 (SW-620 colon): 1.6 µM | TGI (SW-620 colon): 3.2 µM | GI50 (LOX IMVI melanoma): 1.74 µM | TGI (LOX IMVI melanoma): 3.23 µM | GI50 (A549 NSCLC): 1.73 µM | TGI (A549 NSCLC): 3.32 µM | GI50 (KM12 colon): 1.79 µM | TGI (KM12 colon): 3.49 µM | GI50 (SNB-19 CNS): 1.81 µM | TGI (SNB-19 CNS): 3.46 µM | GI50 (MALME-3M melanoma): 1.84 µM | TGI (MALME-3M melanoma): 3.43 µM | GI50 (SNB-75 CNS): 1.44 µM | TGI (SNB-75 CNS): 2.93 µM | GI50 (SK-MEL-2 melanoma): 10.9 µM | TGI (SK-MEL-2 melanoma): 24.1 µM | GI50 (HS 578T breast): 1.84 µM | TGI (HS 578T breast): 3.79 µM | GI50 (786-0 renal): 1.56 µM | TGI (786-0 renal): 2.98 µM | GI50 (NCI-H23 lung): 1.99 µM | TGI (NCI-H23 lung): 4.09 µM | GI50 (SK-OV-3 ovarian): 1.65 µM | TGI (SK-OV-3 ovarian): 3.06 µM | GI50 (M14 melanoma): 1.74 µM | TGI (M14 melanoma): 3.36 µM | GI50 (PC-3 prostate): 1.66 µM | TGI (PC-3 prostate): 3.17 µM | GI50 (A498 renal): 3.13 µM | TGI (A498 renal): 15.2 µM | GI50 (OVCAR-5 ovarian): 1.68 µM | TGI (OVCAR-5 ovarian): 3.07 µM | GI50 (BT-549 breast): 1.95 µM | TGI (BT-549 breast): 4.28 µM | GI50 (TK-10 renal): 1.83 µM | TGI (TK-10 renal): 3.3 µM | GI50 (COLO 205 colon): 1.63 µM | TGI (COLO 205 colon): 3.18 µM | GI50 (IGROV1 ovarian): 1.76 µM | TGI (IGROV1 ovarian): 3.36 µM | GI50 (UO-31 renal): 1.6 µM | TGI (UO-31 renal): 3 µM | GI50 (OVCAR-4 ovarian): 1.53 µM | TGI (OVCAR-4 ovarian): 2.9 µM | GI50 (SK-MEL-28 melanoma): 1.8 µM | TGI (SK-MEL-28 melanoma): 3.24 µM | GI50 (HOP-92 NSCLC): 1.5 µM | TGI (HOP-92 NSCLC): 2.98 µM | GI50 (T-47D breast): 1.71 µM | TGI (T-47D breast): 3.56 µM | GI50 (DU-145 prostate): 1.75 µM | TGI (DU-145 prostate): 3.25 µM | GI50 (OVCAR-8 ovarian): 1.89 µM | TGI (OVCAR-8 ovarian): 3.91 µM

CCC(C)[C@H]1O[C@]2(C=C[C@@H]1C)C[C@@H]1C[C@@H](C/C=C(\C)[C@@H](OC3C[C@H](OC)C(O[C@H]4C[C@H](OC)[C@@H](O)[C@H](C)O4)[C@H](C)O3)[C@@H](C)/C=C/C=C3\CO[C@@H]4[C@H](O)C(C)=C[C@@H](C(=O)O1)[C@]34O)O2 (some centres undefined)
GI50 (HCC-2998 colon): 0.843 µM | TGI (HCC-2998 colon): 1.67 µM | GI50 (HCT-15 colon): 1.72 µM | TGI (HCT-15 colon): 6.79 µM | GI50 (OVCAR-3 ovarian): 0.904 µM | TGI (OVCAR-3 ovarian): 1.66 µM | GI50 (UACC-62 melanoma): 1.53 µM | TGI (UACC-62 melanoma): 7.64 µM | GI50 (HOP-62 NSCLC): 1.37 µM | TGI (HOP-62 NSCLC): 6.53 µM | GI50 (U251 CNS): 1.42 µM | TGI (U251 CNS): 6.47 µM | GI50 (RXF 393 renal): 0.939 µM | TGI (RXF 393 renal): 3.5 µM | GI50 (HL-60(TB) leukemia): 1.16 µM | TGI (HL-60(TB) leukemia): 2.59 µM | GI50 (ACHN renal): 1.72 µM | TGI (ACHN renal): 5.63 µM | GI50 (SN12C renal): 1.65 µM | TGI (SN12C renal): 6.95 µM | GI50 (SK-MEL-5 melanoma): 0.991 µM | TGI (SK-MEL-5 melanoma): 2.28 µM | GI50 (HCT-116 colon): 0.752 µM | TGI (HCT-116 colon): 1.53 µM | GI50 (UACC-257 melanoma): 1.56 µM | TGI (UACC-257 melanoma): 5.74 µM | GI50 (MDA-MB-231 breast): 1.42 µM | TGI (MDA-MB-231 breast): 5.81 µM | GI50 (RPMI-8226 leukemia): 1.58 µM | TGI (RPMI-8226 leukemia): 50 µM | GI50 (SF-539 CNS): 1.5 µM | TGI (SF-539 CNS): 4.49 µM | GI50 (NCI/ADR-RES ovarian): 1.41 µM | TGI (NCI/ADR-RES ovarian): 4.77 µM | GI50 (NCI-H226 lung): 1.08 µM | TGI (NCI-H226 lung): 3.27 µM | GI50 (A549 NSCLC): 1.22 µM | TGI (A549 NSCLC): 7.04 µM | GI50 (KM12 colon): 1.67 µM | TGI (KM12 colon): 5.96 µM | GI50 (SNB-19 CNS): 3.38 µM | TGI (SNB-19 CNS): 41.1 µM | GI50 (NCI-H522 lung): 0.89 µM | TGI (NCI-H522 lung): 1.93 µM | GI50 (SNB-75 CNS): 2.74 µM | TGI (SNB-75 CNS): 9.09 µM | GI50 (SK-MEL-2 melanoma): 1.24 µM | TGI (SK-MEL-2 melanoma): 2.6 µM | GI50 (HS 578T breast): 1.02 µM | TGI (HS 578T breast): 2.87 µM | GI50 (786-0 renal): 0.728 µM | TGI (786-0 renal): 1.56 µM | GI50 (NCI-H23 lung): 1.23 µM | TGI (NCI-H23 lung): 4.16 µM | GI50 (SK-OV-3 ovarian): 2.17 µM | TGI (SK-OV-3 ovarian): 8.23 µM | GI50 (HT29 colon): 0.857 µM | TGI (HT29 colon): 1.78 µM | GI50 (M14 melanoma): 1.04 µM | TGI (M14 melanoma): 2.33 µM | GI50 (A498 renal): 0.5 µM | TGI (A498 renal): 1.14 µM | GI50 (OVCAR-5 ovarian): 2.06 µM | TGI (OVCAR-5 ovarian): 7.86 µM | GI50 (BT-549 breast): 0.864 µM | TGI (BT-549 breast): 1.66 µM | GI50 (TK-10 renal): 1.07 µM | TGI (TK-10 renal): 2.74 µM | GI50 (COLO 205 colon): 0.86 µM | TGI (COLO 205 colon): 1.62 µM | GI50 (MCF7 breast): 1.85 µM | TGI (MCF7 breast): 5.72 µM | GI50 (UO-31 renal): 0.807 µM | TGI (UO-31 renal): 1.73 µM | GI50 (OVCAR-4 ovarian): 1.67 µM | TGI (OVCAR-4 ovarian): 4.76 µM | GI50 (SK-MEL-28 melanoma): 2.08 µM | TGI (SK-MEL-28 melanoma): 7.23 µM | GI50 (HOP-92 NSCLC): 0.65 µM | TGI (HOP-92 NSCLC): 1.41 µM | GI50 (T-47D breast): 1.09 µM | TGI (T-47D breast): 3.58 µM | GI50 (SF-268 CNS): 1.01 µM | TGI (SF-268 CNS): 2.14 µM | GI50 (DU-145 prostate): 0.907 µM | TGI (DU-145 prostate): 1.62 µM | GI50 (OVCAR-8 ovarian): 1.72 µM | TGI (OVCAR-8 ovarian): 9.73 µM
